Data from ChEMBL document CHEMBL1201862, “PubChem BioAssay data set” (2004).
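Briefly, cells in 96-well plates were exposed to five compound concentrations for 48 h, and endpoints were estimated by linear interpolation. Here, GI50 denotes the concentration required for 50% inhibition of growth.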 Calls of active or inactive are those of the source. No stated cut-off is given here; in the data, active = GI50 up to about 1.1 µM and inactive = higher.

Assays:
Assay in all cases: inhibition of tumour cell growth, NCI panel, 48 h
MDA-N = tested on: MDA-N
Malme-3M = tested on: Malme-3M
U-251 = tested on: U-251
PC-3 = tested on: PC-3
SK-MEL-5 = tested on: SK-MEL-5
HOP-62 = tested on: HOP-62
SF-539 = tested on: SF-539
SK-MEL-28 = tested on: SK-MEL-28
NCI-H226 = tested on: NCI-H226
DU-145 = tested on: DU-145
HT-29 = tested on: HT-29
MOLT-4 = tested on: MOLT-4
CCRF-CEM = tested on: CCRF-CEM
UACC-62 = tested on: UACC-62
OVCAR-5 = tested on: OVCAR-5
A498 = tested on: A498
MDA-MB-231 = tested on: MDA-MB-231
OVCAR-3 = tested on: OVCAR-3
786-0 = tested on: 786-0
LXFL 529 = tested on: LXFL 529

Structure (SMILES)	GI50 (MDA-N)	GI50 (Malme-3M)	GI50 (U-251)	GI50 (PC-3)	GI50 (SK-MEL-5)	GI50 (HOP-62)	GI50 (SF-539)	GI50 (SK-MEL-28)	GI50 (NCI-H226)	GI50 (DU-145)	GI50 (HT-29)	GI50 (MOLT-4)	GI50 (CCRF-CEM)	GI50 (UACC-62)	GI50 (OVCAR-5)	GI50 (A498)	GI50 (MDA-MB-231)	GI50 (OVCAR-3)	GI50 (786-0)	GI50 (LXFL 529)
Fc1ccc(NC(=S)SCc2ccc3c(c2)OCO3)cc1F	17.6 µM (inactive)	24.4 µM (inactive)	17.4 µM (inactive)	25.5 µM (inactive)	16 µM (inactive)	39.5 µM (inactive)	22.7 µM (inactive)	3.76 µM (inactive)	37.7 µM (inactive)	31.6 µM (inactive)	20.2 µM (inactive)	18.7 µM (inactive)	23.4 µM (inactive)	14.2 µM (inactive)	11.1 µM (inactive)	17.4 µM (inactive)	31.1 µM (inactive)	29.2 µM (inactive)	37.2 µM (inactive)	
CC(C)=CCC[C@@H](C)C1=C(Nc2ccccc2F)C(=O)C(C)=C(O)C1=O	10.6 µM (inactive)	7.6 µM (inactive)	8.49 µM (inactive)	8.61 µM (inactive)	3.18 µM (inactive)	9.98 µM (inactive)	10.1 µM (inactive)	17.6 µM (inactive)	5.3 µM (inactive)	9.35 µM (inactive)	4.74 µM (inactive)	5.46 µM (inactive)	0.869 µM (active)	4.81 µM (inactive)	36.8 µM (inactive)	6.78 µM (inactive)	4.53 µM (inactive)	4.51 µM (inactive)	5.65 µM (inactive)	
COC1CC(OS(=O)(=O)c2ccc([N+](=O)[O-])cc2)C(OC(=O)c2ccccc2)C(C)O1 (configuration not stated)		> 100 µM (inactive)	> 100 µM (inactive)		> 100 µM (inactive)	> 100 µM (inactive)	54.6 µM (inactive)	> 100 µM (inactive)			> 100 µM (inactive)	> 100 µM (inactive)	> 100 µM (inactive)	> 100 µM (inactive)	> 100 µM (inactive)	88.7 µM (inactive)		> 100 µM (inactive)	32.2 µM (inactive)	> 100 µM (inactive)
NCCn1ccc(NC(c2ccccc2)(c2ccccc2)c2ccccc2)nc1=O		18.6 µM (inactive)	20.7 µM (inactive)			30.1 µM (inactive)	17 µM (inactive)	20.2 µM (inactive)	15.8 µM (inactive)		16.9 µM (inactive)	19 µM (inactive)			> 100 µM (inactive)	65.5 µM (inactive)		25.8 µM (inactive)	17.3 µM (inactive)	16.7 µM (inactive)
COc1ccc([C@@]23CCC(=O)C[C@@H]2N(C)CC3)cc1OC	> 100 µM (inactive)	> 100 µM (inactive)	> 100 µM (inactive)	> 100 µM (inactive)	> 100 µM (inactive)	> 100 µM (inactive)	> 100 µM (inactive)	> 100 µM (inactive)	> 100 µM (inactive)	> 100 µM (inactive)	> 100 µM (inactive)	> 100 µM (inactive)	> 100 µM (inactive)	> 100 µM (inactive)	> 100 µM (inactive)	> 100 µM (inactive)	> 100 µM (inactive)	> 100 µM (inactive)	> 100 µM (inactive)	
CCC1NC(=O)C1NC(=O)OC (configuration not stated)	> 100 µM (inactive)	> 100 µM (inactive)	> 100 µM (inactive)	> 100 µM (inactive)	> 100 µM (inactive)	> 100 µM (inactive)	> 100 µM (inactive)	> 100 µM (inactive)	> 100 µM (inactive)	> 100 µM (inactive)	> 100 µM (inactive)	> 100 µM (inactive)	> 100 µM (inactive)	> 100 µM (inactive)	> 100 µM (inactive)	> 100 µM (inactive)	> 100 µM (inactive)	> 100 µM (inactive)	> 100 µM (inactive)	
COc1cc2c(cc1O)c(O)cc1c3cc(OC)c(OC)cc3c[n+](C)c21	17.7 µM (inactive)	32.9 µM (inactive)	0.582 µM (active)	> 78.2 µM (inactive)	19 µM (inactive)	34.1 µM (inactive)	3.65 µM (inactive)	> 100 µM (inactive)	9.62 µM (inactive)	7.52 µM (inactive)	15.2 µM (inactive)	2.86 µM (inactive)	1.37 µM (inactive)	4.34 µM (inactive)	> 100 µM (inactive)	> 100 µM (inactive)	35.3 µM (inactive)	20.7 µM (inactive)	7.4 µM (inactive)	
CCCCC[C@H]1CC=CC(=O)O1	5.02 µM (inactive)	15.5 µM (inactive)	8.3 µM (inactive)	7.93 µM (inactive)	7.78 µM (inactive)	17.3 µM (inactive)	1.56 µM (inactive)	7.26 µM (inactive)	4.13 µM (inactive)	5.83 µM (inactive)	4.03 µM (inactive)	2.34 µM (inactive)	4.74 µM (inactive)	10.5 µM (inactive)	24 µM (inactive)	1.82 µM (inactive)	10 µM (inactive)	3.5 µM (inactive)	3.1 µM (inactive)	
